Measurements from patent US7235678B2 (priority 2004, dated 2007).
In brackets after ≈: the same amount, converted by molar mass.

Columns and labels:
Yarrowia lipolytica = experiment: Antibiotic inhibition assay using disc method, Y. lipolytica; format: cell-based; settings: for MIC: 28° C.
[1] = test system: Candida albicans (5 isolates), Benjaminiella poitrasii and Yarrowia lipolytica; experiment: Antibiotic inhibition assay using disc method, all fungi tested together; format: cell-based; settings: for antifungal activity (in words): Candida albicans (five isolates), Benjaminiella poitrasii and Yarrowia lipolytica, compared with cycloheximide; for MIC: all five C. albicans isolates, B. poitrassi and Y. lipolytica
[2] = test system: Candida albicans (5 isolates); experiment: Antibiotic inhibition assay using disc method, C. albicans isolates; format: cell-based
Benjaminiella poitrasii = experiment: microbe, parasite or virus in culture; format: cell-based; settings: B. poitrassi, disc method; for MIC: 28° C.
[3] = test system: clinical isolate of C. albicans; settings: microtitre dilution broth assay; cited from earlier work
[4] = C. albicans, Isolate no. 1, disc method
[5] = C. albicans, Isolate no. 1, disc method, 28° C., 24 hours
[6] = C. albicans, Isolate no. 2, disc method
[7] = C. albicans, Isolate no. 2, disc method, 28° C., 24 hours
[8] = C. albicans, Isolate no. 3, disc method
[9] = C. albicans, Isolate no. 3, disc method, 28° C., 24 hours
[10] = C. albicans, Isolate no. 4, disc method
[11] = C. albicans, Isolate no. 4, disc method, 28° C., 24 hours
[12] = C. albicans, Isolate no. 5, disc method
[13] = C. albicans, Isolate no. 5, disc method, 28° C., 24 hours

Compound | Inhibition Zone (Yarrowia lipolytica) | MIC (Yarrowia lipolytica; 24 hours) | antifungal activity (in words) [1] | MIC [1] | Inhibition Zone [2, 4] | MIC [2, 5] | Inhibition Zone [2, 6] | MIC [2, 7] | Inhibition Zone [2, 8] | MIC [2, 9] | Inhibition Zone [2, 10] | MIC [2, 11] | Inhibition Zone [2, 12] | MIC [2, 13] | Inhibition Zone (Benjaminiella poitrasii) | MIC (Benjaminiella poitrasii; 24 hours) | further results
CC(CCC(=O)NCCNCCNC(=O)CCC(C)C1CCC2C3C(O)CC4CC(O)CCC4(C)C3CC(O)C12C)C1CCC2C3C(O)CC4CC(O)CCC4(C)C3CC(O)C12C (stereo not drawn) [Compound (1), N^1,N^3-Diethylenetriaminebis [cholic acid amide]] | 0.9 cm | 0.01132 µM (≈ 0.01 µg/mL) | very good antifungal activity | 0.01132 µM (≈ 0.01 µg/mL) | 0.8 cm | 0.01132 µM (≈ 0.01 µg/mL) | 0.8 cm | 0.01132 µM (≈ 0.01 µg/mL) | 0.8 cm | 0.01132 µM (≈ 0.01 µg/mL) | 0.8 cm | 0.01132 µM (≈ 0.01 µg/mL) | 0.8 cm | 0.01132 µM (≈ 0.01 µg/mL) | 0.7 cm | 0.01132 µM (≈ 0.01 µg/mL) | minimum inhibitory concentration (MIC) ([1]; summary in description, fungi not specified): about 11.30 nM
C[C@@H]1C[C@@H]([C@H](O)CC2CC(=O)NC(=O)C2)C(=O)[C@@H](C)C1 [Cycloheximide, reference compound] | 0.9 cm | 0.1068 µM (≈ 0.03 µg/mL) |  |  | 1.0 cm |  | 0.9 cm |  | 0.9 cm |  | 1.0 cm |  | 0.8 cm |  | 1.45 cm | 0.0712 µM (≈ 0.02 µg/mL) | MIC [3]: greater than 900 nM; MIC (Yarrowia lipolytica; Yarrowia lipolytica, 24 h): 0.106 µM (≈ 0.0298 µg/mL); MIC ([2]; Candida albicans, 24 h, C. albicans, Isolate no. 1, disc method, 28° C.): 0.356 µM (≈ 0.1 µg/mL); MIC ([2]; Candida albicans, 24 h, C. albicans, Isolate no. 2, disc method, 28° C.): 0.539 µM (≈ 0.152 µg/mL); MIC ([2]; Candida albicans, 24 h, C. albicans, Isolate no. 3, disc method, 28° C.): 0.267 µM (≈ 0.0751 µg/mL); MIC ([2]; Candida albicans, 24 h, C. albicans, Isolate no. 4, disc method, 28° C.): 0.534 µM (≈ 0.15 µg/mL); MIC ([2]; Candida albicans, 24 h, C. albicans, Isolate no. 5, disc method, 28° C.): 0.534 µM (≈ 0.15 µg/mL); MIC ([2]; Candida albicans, isolates of C. albicans, range over isolates): 0.25 to 0.5 µM (≈ 0.0703 to 0.141 µg/mL); MIC (Benjaminiella poitrasii; Benjaminiella poitrasii, 24 h): 0.071 µM (≈ 0.02 µg/mL)
N^1,N^3-Diethylenetriaminebis [Compound (2), N^1,N^3-Diethylenetriaminebis [deoxycholic acid amide]] | 0.8 cm | 0.0235 µM | moderate antifungal activity | 0.01 to 0.025 µM | 0.9 cm | 0.01175 µM | 0.7 cm | 0.01175 µM | 1.0 cm | 0.01175 µM | 0.8 cm | 0.01175 µM | 0.9 cm | 0.01763 µM | 0.6 cm | 0.01763 µM | 
